In brackets after ≈: the same amount, converted by molar mass. Read-outs that look alike come from different tables or passages of the source.
Experiments:
urease [1] = conditions: cited from earlier work
[2] = test system: Cryptococcus neoformans (H99); assay: In vitro antimicrobial activity, CLSI microbroth dilution (yeast); type: cell-based
Procedure: The antimicrobial activities of all derivatives against C. neoformans (H99), and clinical isolate of P. mirabilisas urease positive microorganism, were tested as recommended by the Clinical and Laboratory Standards Institute (CLSI) (M07-A9 for bacteria; M27-A3 for yeasts). The compounds were diluted, and stock solutions of 20 mg/mL in DMSO were prepared. Mueller–Hinton Broth (HiMedia) and RPMI-1640 (Sigma) were prepared as recommended for antimicrobial susceptibility testing of bacterial and fungal strains, respectively. Two-fold dilutions were made in the range of 1–512 μg/mL for tested compounds. The microbroth dilution test was accomplished using a 96-well microtiter plate containing growth control (drug free wellls) and sterility control (only broth media). The antimicrobial susceptibility test was accomplished by adding a cell suspension adjusted to the 0.5 McFarland standard (1–2 × 10^8 CFU/mL for bacterial strains; 1–5 × 10^6 cells/mL for yeast) to different concentrations of tested compounds. […] All experiments were performed in duplicates.

urease [3] = target: urease (Canavalia ensiformis, UniProt P07374); assay: Kinetic study of urease inhibition (Lineweaver–Burk); type: biochemical, Jack bean
Chain of urease (Canavalia ensiformis, UniProt P07374) (P07374 whole entry, looked up): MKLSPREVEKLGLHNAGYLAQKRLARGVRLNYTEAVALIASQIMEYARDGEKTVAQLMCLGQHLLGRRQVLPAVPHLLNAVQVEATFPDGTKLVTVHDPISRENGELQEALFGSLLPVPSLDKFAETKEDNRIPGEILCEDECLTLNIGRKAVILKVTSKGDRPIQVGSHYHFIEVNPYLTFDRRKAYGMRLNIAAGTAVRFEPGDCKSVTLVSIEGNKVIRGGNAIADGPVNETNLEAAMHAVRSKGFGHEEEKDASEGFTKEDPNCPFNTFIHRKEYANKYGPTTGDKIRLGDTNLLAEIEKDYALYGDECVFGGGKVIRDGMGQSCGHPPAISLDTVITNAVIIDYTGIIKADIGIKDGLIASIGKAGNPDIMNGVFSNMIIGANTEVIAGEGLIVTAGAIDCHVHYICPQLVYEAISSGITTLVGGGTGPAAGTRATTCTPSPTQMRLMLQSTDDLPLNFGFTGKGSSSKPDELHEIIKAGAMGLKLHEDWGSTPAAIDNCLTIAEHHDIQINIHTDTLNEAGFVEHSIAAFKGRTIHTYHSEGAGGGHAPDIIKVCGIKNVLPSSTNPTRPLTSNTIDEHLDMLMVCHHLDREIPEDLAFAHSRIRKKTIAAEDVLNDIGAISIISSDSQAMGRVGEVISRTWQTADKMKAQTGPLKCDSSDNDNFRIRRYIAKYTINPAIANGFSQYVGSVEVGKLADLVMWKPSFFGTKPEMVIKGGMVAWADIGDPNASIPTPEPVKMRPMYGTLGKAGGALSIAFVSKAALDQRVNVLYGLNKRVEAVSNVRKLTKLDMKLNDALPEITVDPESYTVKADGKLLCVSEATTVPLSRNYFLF
Procedure: The kinetic study for the inhibition of urease by compound 6a was carried out using four different concentrations of inhibitor. Compound 6a was tested at […] concentrations against urease for the kinetic study. The Lineweaver–Burk reciprocal plot was constructed by plotting 1/V against 1/[S] at variable concentrations of the substrate urea (3.12 to 100 mM). The inhibition constant Ki was calculated by the plot of slopes versus the corresponding concentrations of compound 6a.

Proteus mirabilis = assay: In vitro antimicrobial activity, CLSI microbroth dilution (bacteria); type: cell-based; conditions: clinical isolate
Procedure: M27-A3 for yeasts). The compounds were diluted, and stock solutions of 20 mg/mL in DMSO were prepared. Mueller-Hinton Broth (HiMedia) and RPMI-1640 (Sigma) were prepared as recommended for antimicrobial susceptibility testing of bacterial and fungal strains, respectively. Two-fold dilutions were made in the range of 1-512 μg/mL for tested compounds. […] All experiments were performed in duplicates.

C. neoformans (H99) = assay: Anti-ureolytic activity, colorimetric urea broth microdilution; type: cell-based, Cryptococcus neoformans; conditions: read after three days, means ± SD of 3 independent experiments; for IC50: Cryptococcus neoformans, 72 h
Procedure: (§1) The colorimetric microdilution technique using urea broth media (Merck) was used to examine the ureolytic activity of C. neoformans (H99), and clinical isolate of P. mirabilis treated with tested substances (supplemented with glucose; pH = 6 for C. neoformans). Compounds in the concentration range of 1 to 512 μg/mL were exposed to ureolytic microorganisms, and the color of the medium was evaluated visually and spectroscopically at 560 nm after three days for C. neoformans and 24 h for P. mirabilis. The positive control, which included ureolytic bacteria but no drugs, changed color from yellow to dark pink or magenta. This shifts, allowing the determination of the inhibitory activity of compounds against the urease activity of organisms even without a microliter plate reader[45],[46].

P. mirabilis = assay: as above; type: cell-based, Proteus mirabilis; conditions: read after 24 h, means ± SD of 3 independent experiments; for IC50: Proteus mirabilis, read-out: urease inhibitory activity IC50 (µg/mL) ± SD
Procedure: as §1

Jack bean urease = Jack bean urease (Canavalia ensiformis, UniProt P07374); assay: Screening of urease inhibitory activities (indophenol method, enzymatic); type: biochemical
Chain of Jack bean urease (P07374 whole entry, looked up): as above
Procedure: Urease inhibition effects of the synthesized compounds were determined according to the previously reported procedure[37]–[39]. Briefly, 100 μL of the synthesized compounds at different concentrations was added to 850 μL of urea as substrate and 50 μL urease (3 mg/mL) in phosphate buffer, pH = 7.4). After 30 min, to 100 μL of the incubated solution, 500 μL of solution I (5.0 g phenol and 25.0 mg sodium nitroprusside in 500 mL water) was added, followed by the addition of 500 μL of solution II (2.5 g sodium hydroxide, 4.2 mL sodium hypochlorite, and 5% chlorine in 500 mL water) which was further incubated at 37 °C for 30 min. The absorbance of blue-colored indophenol of each cell is related to the percentage of enzyme inhibition using the following equation at 625 nm. The IC50 values for all synthesized compounds were calculated using GraphPad Prism software (GraphPad Software, Inc., San Diego, CA).

[4] = read-out: urease inhibitory activity IC50 (µg/mL) ± SD, C. neoformans
[5] = C. neoformans, read-out: urease inhibitory activity IC50 (µg/mL) ± SD
[6] = urease enzymatic assessment, mean ± SD of three independent experiments, read-out: IC50 (µM) ± SD

SMILES | MIC ([2]; read-out: MIC) [µg/mL] | melting point [°C] | MIC (Proteus mirabilis; read-out: MIC) [µg/mL] | IC50 (P. mirabilis) [µg/mL] | IC50 (Jack bean urease) [µM] | IC50 (C. neoformans (H99); [5]) [µg/mL] | further results
Cc1ccc(-n2c(C(O)c3ccccc3)n[nH]c2=S)cc1 (centres unmarked) [A] | – | – | – | – | – | – | IC50 (urease [1]; urease, read-out: IC50): 16.7 ± 0.178 µM
COc1ccc(NC(=O)NCc2cn(Cc3ccc(Cl)cc3Cl)nn2)cc1 [B] | – | – | – | – | – | – | IC50 (urease [1]; urease, read-out: IC50): 22.81 ± 0.05 µM
Cc1ncc([N+](=O)[O-])n1Cc1cn(Cc2ccc(F)cc2)nn1 [C] | – | – | – | – | – | – | IC50 (urease [1]; urease, read-out: IC50): 1.98 ± 0.25 µM
c1ccc(CSc2nn3c(-c4ccccc4)nnc3s2)cc1 [Compound 6a, 6-(benzylthio)-3-phenyl-[1,2,4]triazolo[3,4-b][1,3,4]thiadiazole] | > 256 | 217 to 219 | 256 (≈ 789 µM) | 78.2 ± 8.5 (≈ 241 µM) | 0.87 ± 0.09 | – | Ki (urease [3]): 1.37 µM; type of inhibition (urease [3]; Lineweaver–Burk plot): competitive; IC50 (C. neoformans (H99); [4]): > 124 µg/mL; improvement in the activity vs positive control (Jack bean urease; vs thiourea): around 27 times
Fc1ccccc1CSc1nn2c(-c3ccccc3)nnc2s1 [Compound 6b, 6-((2-fluorobenzyl)thio)-3-phenyl-[1,2,4]triazolo[3,4-b][1,3,4]thiadiazole] | > 256 | 190 to 192 | 256 (≈ 748 µM) | 87.3 ± 4.9 (≈ 255 µM) | 1.51 ± 0.21 | 111 ± 7.4 (≈ 324 µM) | –
Fc1cccc(CSc2nn3c(-c4ccccc4)nnc3s2)c1 [Compound 6c, 6-((3-fluorobenzyl)thio)-3-phenyl-[1,2,4]triazolo[3,4-b][1,3,4]thiadiazole] | > 256 | 216 to 218 | 256 (≈ 748 µM) | 79.8 ± 3.5 (≈ 233 µM) | 1.4 ± 0.29 | 117 ± 6.4 (≈ 343 µM) | –
Fc1ccc(CSc2nn3c(-c4ccccc4)nnc3s2)cc1 [Compound 6d, 6-((4-fluorobenzyl)thio)-3-phenyl-[1,2,4]triazolo[3,4-b][1,3,4]thiadiazole] | > 256 | 199 to 201 | 256 (≈ 748 µM) | 91 ± 6.4 (≈ 266 µM) | 1.01 ± 0.13 | 118 ± 8.6 (≈ 344 µM) | –
Clc1ccccc1CSc1nn2c(-c3ccccc3)nnc2s1 [Compound 6e, 6-((2-chlorobenzyl)thio)-3-phenyl-[1,2,4]triazolo[3,4-b][1,3,4]thiadiazole] | > 256 | 224 to 226 | 256 (≈ 713 µM) | 93.3 ± 5.2 (≈ 260 µM) | 8.32 ± 1.21 | 102 ± 3.3 (≈ 284 µM) | MIC (µg/mL) [2]: almost inactive
Clc1cccc(CSc2nn3c(-c4ccccc4)nnc3s2)c1 [Compound 6f, 6-((3-chlorobenzyl)thio)-3-phenyl-[1,2,4]triazolo[3,4-b][1,3,4]thiadiazole] | 1 (≈ 2.79 µM) | 216 to 218 | 256 (≈ 713 µM) | 73.2 ± 5.5 (≈ 204 µM) | 1.25 ± 0.19 | 87.5 ± 8.1 (≈ 244 µM) | MFC/MBC [2]: 2 µg/mL (≈ 5.57 µM)
Clc1ccc(CSc2nn3c(-c4ccccc4)nnc3s2)cc1 [Compound 6g, 6-((4-chlorobenzyl)thio)-3-phenyl-[1,2,4]triazolo[3,4-b][1,3,4]thiadiazole] | 2 (≈ 5.57 µM) | 218 to 220 | 256 (≈ 713 µM) | 75.4 ± 6.1 (≈ 210 µM) | 1.68 ± 0.73 | – | MFC/MBC [2]: 4 µg/mL (≈ 11.1 µM); urease inhibitory activity IC50 (µg/mL) ± SD (C. neoformans (H99); C. neoformans): 94.3 ± 5.9 µg/mL; IC50 (C. neoformans (H99); [4]): 93.3 µg/mL (≈ 260 µM)
Clc1ccc(CSc2nn3c(-c4ccccc4)nnc3s2)cc1Cl [Compound 6h, 6-((3,4-dichlorobenzyl)thio)-3-phenyl-[1,2,4]triazolo[3,4-b][1,3,4]thiadiazole] | 0.5 (≈ 1.27 µM) | 215 to 217 | 256 (≈ 651 µM) | 74.5 ± 4.7 (≈ 189 µM) | 1.41 ± 0.32 | 83.7 ± 3.2 (≈ 213 µM) | MFC/MBC [2]: 0.5 µg/mL (≈ 1.27 µM)
Brc1ccccc1CSc1nn2c(-c3ccccc3)nnc2s1 [Compound 6i, 6-((2-bromobenzyl)thio)-3-phenyl-[1,2,4]triazolo[3,4-b][1,3,4]thiadiazole] | > 256 | 210 to 212 | 256 (≈ 635 µM) | 109 ± 6.2 (≈ 271 µM) | 1.59 ± 0.14 | 112 ± 6.7 (≈ 278 µM) | –
Brc1cccc(CSc2nn3c(-c4ccccc4)nnc3s2)c1 [Compound 6j, 6-((3-bromobenzyl)thio)-3-phenyl-[1,2,4]triazolo[3,4-b][1,3,4]thiadiazole] | > 256 | 225 to 227 | 256 (≈ 635 µM) | 112 ± 6.9 (≈ 278 µM) | 1.05 ± 0.34 | 111 ± 4.8 (≈ 276 µM) | –
Brc1ccc(CSc2nn3c(-c4ccccc4)nnc3s2)cc1 [Compound 6k, 6-((4-bromobenzyl)thio)-3-phenyl-[1,2,4]triazolo[3,4-b][1,3,4]thiadiazole] | – | – | – | – | – | – | MIC [2]: > 256 µg/mL; MIC (Proteus mirabilis): 256 µg/mL (≈ 635 µM); urease inhibitory activity IC50 (µg/mL) ± SD (C. neoformans (H99); C. neoformans): 118.7 ± 5.5 µg/mL; urease inhibitory activity IC50 (µg/mL) ± SD (P. mirabilis): 113.7 ± 4.6 µg/mL; IC50 (Jack bean urease; [6]): 1.53 ± 0.17 µM
O=[N+]([O-])c1ccc(CSc2nn3c(-c4ccccc4)nnc3s2)cc1 [Compound 6l, 6-((4-nitrobenzyl)thio)-3-phenyl-[1,2,4]triazolo[3,4-b][1,3,4]thiadiazole] | – | – | – | – | – | – | MIC [2]: > 256 µg/mL; MIC (Proteus mirabilis): 256 µg/mL (≈ 693 µM); urease inhibitory activity IC50 (µg/mL) ± SD (C. neoformans (H99); C. neoformans): 113.6 ± 5.4 µg/mL; urease inhibitory activity IC50 (µg/mL) ± SD (P. mirabilis): 91.8 ± 7.0 µg/mL; IC50 (Jack bean urease; [6]): 2.22 ± 0.18 µM
Cc1ccccc1CSc1nn2c(-c3ccccc3)nnc2s1 [Compound 6m, 6-((2-methylbenzyl)thio)-3-phenyl-[1,2,4]triazolo[3,4-b][1,3,4]thiadiazole] | – | – | – | – | – | – | MIC [2]: > 256 µg/mL; MIC (Proteus mirabilis): 256 µg/mL (≈ 756 µM); urease inhibitory activity IC50 (µg/mL) ± SD (C. neoformans (H99); C. neoformans): 110.9 ± 3.8 µg/mL; urease inhibitory activity IC50 (µg/mL) ± SD (P. mirabilis): 95.7 ± 6.6 µg/mL; IC50 (Jack bean urease; [6]): 1.6 ± 0.23 µM
Cc1cccc(CSc2nn3c(-c4ccccc4)nnc3s2)c1 [Compound 6n, 6-((3-methylbenzyl)thio)-3-phenyl-[1,2,4]triazolo[3,4-b][1,3,4]thiadiazole] | – | – | – | – | – | – | MIC [2]: > 256 µg/mL; MIC (Proteus mirabilis): 256 µg/mL (≈ 756 µM); urease inhibitory activity IC50 (µg/mL) ± SD (C. neoformans (H99); C. neoformans): 112.3 ± 4.6 µg/mL; urease inhibitory activity IC50 (µg/mL) ± SD (P. mirabilis): 96.8 ± 4.7 µg/mL; IC50 (Jack bean urease; [6]): 1.23 ± 0.56 µM
CSc1nn2c(-c3ccccc3)nnc2s1 [Compound 6o, 6-(methylthio)-3-phenyl-[1,2,4]triazolo[3,4-b][1,3,4]thiadiazole] | – | 213 to 215 | – | – | – | – | –
Cc1cccc(C)c1Nc1nnc(-c2ccc(Cl)cc2)s1 [D] | – | – | – | – | – | – | IC50 (urease [1]; urease, read-out: IC50): 214.7 ± 0.16 µM
CCNc1nnc(Cc2nc3ccccc3c(=O)n2Cc2ccc(F)cc2)s1 [E] | – | – | – | – | – | – | IC50 (urease [1]; urease): 1.88 ± 0.17 µg/mL
O=C(NC1CCCCC1)C(c1cccs1)N(C(=O)CSc1nnc(-c2ccc([N+](=O)[O-])o2)s1)c1ccccc1 (centres unmarked) [F] | – | – | – | – | – | – | improvement in the inhibitory potency against urease compared to thiourea (urease [1]): tenfold; mode of inhibition (urease [1]; urease): non-competitive
OC(Cn1cncn1)(Cn1cncn1)c1ccc(F)cc1F [Fluconazole, reference compound] | 2 (≈ 6.53 µM) | – | – | – | – | – | –
NC(N)=S [Thiourea, reference compound] | – | – | – | – | – | – | IC50 (Jack bean urease; [6]): 22.5 ± 2.34 µM

Source: paper PMC10287669, “[1,2,4]triazolo[3,4-b][1,3,4]thiadiazole derivatives as new therapeutic candidates against urease positive microorganisms: design, synthesis, pharmacological evaluations, and in silico studies” (Scientific Reports, 2023)
